The source of these data is US20250270648A1, “MOLECULAR SIGNATURE FOR ASSESSING THE RESPONSIVENESS OF CANCER TO MITOCHONDRIA-TARGETED ANTIOXIDANTS” (UNIVERSITÉ CATHOLIQUE DE LOUVAIN, priority 2021, published 2025).

In assay [1] the test system is primary breast tumors of MMTV-PyMT mice. As to the kind of experiment: RT-qPCR of primary breast tumors. It is filed as in vivo. As to conditions: FEC + MitoQ 18 mg/kg daily oral; mouse transcripts; P<0.01; read-out: fold induction of SLC7A11, SERPINE1 and TXNRD1 (each independently). How it is done: Total mRNA from MDA-MB-231, SkBr3 and MDA-MB-436 cells treated ±MitoQ for 48 h was extracted using the NucleoSpin RNA Kit (Macherey-Nagel®). Total mRNA from primary tumors was extracted with Tri reagent (Molecular Research Center®, Cat #TR118). mRNAs were quantified by the Qubit BR dsRNA assay kit (Thermo Fisher Scientific®), and mRNA integrity was evaluated on an Agilent® 2100 Bioanalyzer with the RNA 6000 nano kit (Agilent®). It was reverse transcribed in complementary DNA using the High-Capacity cDNA Reverse Transcription Kit (Applied Biosystems®, cat #4368814) according to manufacturer's protocol. Complementary DNA (500 ng) was amplified by real time quantitative PCR (RT-qPCR) using the low ROX SYBR Master Mix dTTP Blue (Eurogentec®) and primers listed in Table 5 and Table 6 on a ViiA 7 Real-Time PCR System (Thermo Fisher Scientific®). Gene expression was normalized to β-actin gene expression.
Female FVB/N-Tg(MMTV-PyMT)634Mul/J (MMTV-PyMT) mice that express the polyomavirus middle T antigen spontaneously develop orthotropic multifocal breast adenocarcinomas that spontaneously disseminate metastases to the lungs during mouse lifetime. […] They were sacrificed at 16 weeks-old, and the lungs insufflated with Indian ink for metastasis quantification as described above. […]
(In general: In qPCR the cycle at which signal appears reflects the starting amount.)

The test system of assay [2] is MCF10A normal breast epithelial cells. As to the kind of experiment: Mitochondrial potential, JC-10. It is filed as cell-based, human. As to conditions: MitoQ 100 nM, 48 h. The protocol:
(§1) The mitochondrial potential (ΔΨ) was measured using JC-10 Mitochondrial Membrane Potential Assay Kit (Abcam®, #ab112134), according to manufacturer's recommendations. Briefly, MDA-MB-231 (10^4 cells/well), SkBr3 (10^4 cells/well), MDA-MB-436 (10^4 cells/well) or MCF10A (10^5 cells/well) cells were seeded in 96-well plates and treated for 48 h±MitoQ. Cells were then washed twice and incubated with JC-10 (1× solution) for 45 min. Fluorescence intensities were measured at 490/525 nm and […] using a SpectraMax i3 spectrophotometer equipped with a MiniMax imaging cytometer (Molecular Devices®).

Assay [3] has as its system MDA-MB-436 breast cancer cells. The assay can be described thus: Mitochondrial potential, JC-10. It counts as cell-based, human. As to conditions: MitoQ 100 nM, 48 h. How it is done: as §1
Assay [4] has as its system 4T1 cells. The assay can be described thus: Migration towards 0.5% serum, chemotaxis chamber. It counts as cell-based, mouse. The protocol: Previous to migration and invasion assays, cells were pretreated with the indicated amounts of drugs for 16 h, and left to recover for 6 h in full culture medium. Migration assays were performed in a NeuroProbe® standard 48-well chemotaxis chamber according to manufacturer's instructions. Briefly, the bottom chamber was filled with DMEM containing 0.5% serum as a chemo-attractant. Fifty thousand cells were seeded in the upper chamber in the same medium but without serum ±MitoQ where indicated, and allowed to migrate overnight through an 8-μm pore-size polycarbonate membrane. A similar stimulation protocol was used for invasion assays, with the difference of using Matrigel-coated transwells (Corning®). With MCF7 cells, membranes were previously incubated for 30 min with a solution of Vitronectin 10 μg/ml (Sigma-Aldrich®, #SRP3186). Migrated/invaded cells were fixed and stained with 100 μl of a 0.23% crystal violet solution (Sigma-Aldrich®, #C0775) for 10 min before counting on a SpectraMax™ i3 spectrophotometer equipped with a MiniMax imaging cytometer, using the SoftMax Pro software. Data were normalized to vehicle-treated cells (control).

As for `COC1=C(OC)C(=O)C(CCCCCCCCCC[P+](c2ccccc2)(c2ccccc2)c2ccccc2)=C(C)C1=O` [MitoQ], the fold induction at 18 mg/kg in assay [1] was no less than 2. In addition, in assay [2], the “mitochondrial potential (Δψ)” value is “not affected”. Besides, the “AT (FIG. 14D, mitochondrial potential)” value in assay [3] is “repressed”. For the same molecule, the DXR-stimulated cell migration result in assay [4] (0.1 μg/mL DXR + 100 nM MitoQ) is recorded as “inhibited”. The “breast cancer cell migration in the presence of cisplatin” value in assay [4] (indicated doses of cisplatin + 100 nM MitoQ) was “repressed”.
